# Test results reported in publication PMC12140054, “Small glycomimetic antagonists of the cytomegalovirus glycoprotein UL141 prevent binding to TRAIL death receptor” (The Journal of Biological Chemistry, 2025).
# “And” between values parts separate entries of the source, which are not always exact repeats. Equal values may be shown once.
# Tests used:
# [1] = test system: human foreskin fibroblasts HFF-BJ (ATCC CRL-2522 cells); test: MTT cytotoxicity / cell viability assay; type: cell-based; settings: 0.1 to 50 μM, 72 h
# Excerpt: Cell viability as visualized by fold change of formazan-positive cells normalized to the untreated control and DMSO. Viability reduced below 40% represents the cytotoxic zone, below the dotted line in each plot. The number of biological replicates is indicated.
# Human foreskin fibroblasts (HFF), a type of primary fibroblast derived from neonatal foreskin tissue, were chosen for this bioassay due to their distinct advantages in studies involving HCMV. For instance, the HHF cells provide a relevant and effective platform due to their unique susceptibility to HCMV infection, ability to mimic human immune responses, and relevance to clinical scenarios. […] HFF cells were incubated with each compound at concentrations ranging from 0.1 to 50 μM and any possible cytotoxic effect was monitored for 72 h. Tested compounds were dissolved in dimethyl sulfoxide (DMSO). […] The cytotoxic effect (CTE) is represented here as the concentration that causes a reduction of more than 40% in the number of viable cells.
# Cells were seeded in a 96-well plate at a density of 1 × 10^4 cells per well for the measurement of cytotoxicity of the compounds (without UVA irradiation). […] Cells after treatment were incubated for […]. Untreated cells were considered negative control, and DMSO-treated cells (at appropriate concentration) were considered vehicle control. The classical MTT assay (3-(4,5-dimethyl thiazolyl-2)-2,5-diphenyltetrazolium bromide) ([68]) was used to measure cellular metabolic activity as an indicator of cell viability, proliferation, and cytotoxicity. Briefly, 0.5 mg/ml MTT solution was dispensed in each well of the 96-well plate and incubated for 4 h. Afterward, the MTT solution was removed and 200 μl of 100% DMSO was added to each well and the plate was placed on a microplate shaker for 5 min to dissolve the formazan granules. The absorbance was measured at 550 nm using a spectrophotometer. DMSO and MTT were purchased from Thermo Fisher Scientific. The darker the solution, the greater the number of viable, metabolically active cells. All experimental compounds were measured using at least 2 to 3 replicates for each and the averaged values from three independent experiments (n = 3) are presented. Cell viability was visualized by fold change of formazan-positive cells normalized to the untreated control and DMSO. Viability reduced below 40% represents the cytotoxic zone. All evaluations were performed using GraphPad Prism 9.5.0 (GraphPad Software, LLC), if other software was not explicitly mentioned.
# HCMV UL141 = target: T1, HCMV UL141 (Human cytomegalovirus, UniProt Q6RJQ3); test: biochemical; type: binding
# T1 construct: we expressed and purified the full-length recombinant UL141 (amino acids 30–300); made in house
# T1 sequence (Q6RJQ3 30-300): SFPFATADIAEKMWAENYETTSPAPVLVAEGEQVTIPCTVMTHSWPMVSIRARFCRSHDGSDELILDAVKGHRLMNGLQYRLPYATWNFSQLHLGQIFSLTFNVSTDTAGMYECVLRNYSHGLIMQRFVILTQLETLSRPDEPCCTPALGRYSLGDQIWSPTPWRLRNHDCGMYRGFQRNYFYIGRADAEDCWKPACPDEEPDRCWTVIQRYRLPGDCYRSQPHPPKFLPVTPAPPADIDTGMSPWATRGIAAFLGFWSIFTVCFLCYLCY
# Description: To prepare HCMV UL141 for binding studies, biotinylation was performed using the BiotinTag Micro Biotinylation Kit (Sigma-Aldrich). Purified UL141 protein (50 μg in 50 μl) was mixed with 50 μl of BiotinTag reaction buffer provided in the kit. Sulfo-NHS-Biotin reagent was freshly prepared by dissolving the vial contents in 1 ml of sterile water. A calculated volume of the biotin reagent was added to achieve a 20:1 M excess of biotin to protein. The reaction mixture was incubated for 30 min at room temperature with gentle mixing to ensure efficient labeling. Following incubation, unreacted biotin was removed using the desalting column included in the kit. The biotinylated UL141 protein was eluted in 50 mM Hepes, pH 7.5, 150 mM NaCl. Biotin incorporation was verified using a colorimetric biotin quantification assay (e.g., HABA assay). The biotinylated protein was then quantified spectrophotometrically using a NanoDrop instrument and concentrated to the desired level for Biacore or ELISA binding studies. The biotinylated protein was stored at 4 °C for short-term use or −80 °C for long-term storage to maintain stability.
# The sensor surface of an SA chip (Cytiva) was preconditioned with HBS-EP buffer (10 mM Hepes, 150 mM NaCl, 3 mM EDTA, 0.005% Tween-20) to stabilize the baseline and remove any loosely bound streptavidin. Before use, the buffer was filtered through a 0.2 μm polystyrene filter and degassed under vacuum for 10 min to eliminate air bubbles. Biotinylated HCMV UL141 was immobilized on the SA chip, maintaining biotinylation at 0.5 to 1.5 mol per mole of protein. Excess biotin was removed via gel filtration. UL141 was injected at 30 μl/min, achieving maximum immobilization (4000–6000 RU), followed by washing with running buffer. Residual unbound proteins were optionally removed with a 2 M NaCl pulse. To ensure optimal SPR signal detection, which depends on the analyte mass bound to the ligand, relatively high amounts of ligand were immobilized on the sensor chip to achieve a significant response signal upon binding of the small compound. […] Regeneration of the chip surface, when necessary, was performed using 5 mM NaOH. Control injections of zero concentrations and duplicate injections of selected concentrations were included to validate surface regeneration. […]
# [2] = UL141 immobilized, substance as analyte, 1:1 Langmuir model
# [3] = UL141 immobilized, substance as analyte, 1:1 Langmuir model, listed as cmp 18
smiles,measurement,setting,value
CCC1C(O)C(O)CN1Cc1ccc(I)cc1 (centres unmarked) [Compound 18],cytotoxicity (in words),[1],no cytotoxicity was detected
same,Kd,"HCMV UL141; UL141 immobilized (ligand), substance in solution (analyte), 1:1 Langmuir model, 25 °C",2930 nM
same,Kd,"HCMV UL141; binding to UL141, SPR",2930 nM and 2900 nM
same,Rmax,"HCMV UL141; UL141 immobilized, substance as analyte",19
same,koff,HCMV UL141; [2],0.157 s⁻¹
same,kon,HCMV UL141; [2],53600 M⁻¹ s⁻¹
same,koff,HCMV UL141; [3],(1.57 ± 0.039) × 10^−1 s^−1
same,kon,HCMV UL141; [3],(5.36 ± 0.003) × 10^4 M^−1s^−1
